Data: patent publication US9381191B2, “Imidazopyridine derivatives useful in treating diabetes” (METABRAIN RESEARCH, priority 2012, dated 2016)

Legend:
isolated rat hepatocytes [1] = test: Hepatic production of glucose, 3 h incubation; format: cell-based, Wistar rat; conditions: for activity at 50 µM / activity at 100 µM: Hepatocyte, rat hepatocytes; for activity at 50 µM: read-out: HGP % of ctrl @ 50 μM; for activity at 100 µM: read-out: HGP % of ctrl @ 100 μM
Description: (§1) The hepatocytes are isolated from Wistar rat liver having fasted for 24 h after perfusion of collagenase in the portal vein. 1) The freshly isolated hepatocytes are sown in 6-well plates coated with collagen and containing an adhesion medium (Williams Medium). After adhesion, the medium is replaced with RPMI 1640 medium without any glucose, containing hydrocortisone (7·10^−5M) for a duration from 16 to 18 h. The next day, the glucose hepatic production test is conducted in a Krebs medium for 3 h. The basal conditions are cells incubated with only Krebs, the stimulated conditions are the cells placed in Krebs+lactate+pyruvate, the produced conditions are the cells exposed to chemical compounds in a Krebs/lactate/pyruvate medium. In the case when the compounds are dissolved in DMSO, all the conditions of the tests are met in the presence of a final concentration of 0.1% DMSO. The positive control of the test is the mercaptopicolinate known for its inhibitory action on hepatic production of glucose via the phosphoenolpyruvate carboxykinase. For short term treatments, the compounds are incubated for 3 h. For long term treatments, the compounds are incubated for 20 h at the moment when the hepatocytes are cultivated in RPMI and then added during the hepatic production test for 3 h. At the end of the 3 hours of incubation, the supernatant is recovered for measurement of glucose with a colorimetric method using glucose oxidase. The cells are lysed with a 0.1% NaOH aqueous solution in order to measure the amount of protein with the Lowry method. The results are expressed in mmol of glucose per mg of protein.

INS-1 cells = test: Stimulation test of insulin secretion by INS-1 cells; format: cell-based; conditions: Rattus norvegicus, INS1, 1 h, insulin secretion by INS-1 cells in response to glucose; for insulin secretion, % of control at 10 µM: read-out: HGP % of ctrl @ 10 μM; for insulin secretion, % of control at 50 µM: read-out: HGP % of ctrl @ 50 μM
Description: The different compounds were tested on an INS-1 beta-pancreatic line in order to evaluate their capability of potentializing the insulin secretion in response to glucose. Very briefly, the cells are cultivated in a culture medium, RPMI 1640 with 10 mM glucose containing 1 mM of sodium pyruvate, 50 μM of 2-mercaptoethanol, 2 mM of glutamine, 10 mM of HEPES, 100 IU/ml of penicillin, 100 μg/ml of streptomycin and 10% of inactivated fetal calf serum, as described by Asfari et al.. For the insulin secretion test, the INS-1 cells are sown and cultivated in 96-well plates. After 3 days of cultivation at 37° C. in a humid atmosphere (95% air/5% CO2), the medium is removed and the cells are incubated for 16 h in a medium containing 5 mM of glucose and 1% of inactivated fetal calf serum. On the day of the test, the cells are washed with a Krebs buffer (pH 7.4) containing 0.1% of bovine albumin and then pre-incubated for 30 min at 37° C. in this same buffer containing 2.8 mM of glucose. Finally, the cells are again washed with Krebs buffer and then incubated for 1 h in the buffer of the secretion test (Krebs, pH 7.4 containing 0.1% of bovine albumin and 3.5 mM of glucose and molecules to be evaluated). At the end of the test, the cell supernatant is recovered in order to measure therein the secreted insulin, by means of an ELISA kit using a rat anti-insulin antibody (ELISA Alpco Cat no. 80-INSRTH-E10). Each condition is tested in triplicate. The 3.5 mM glucose, the 10^−7M GLP-1 and the Forskoline 10^−7/IBMX 10^−5M mixtures are used as positive controls of the test. A compound stimulates the secretion of insulin if this factor is greater than or equal to 130% of the control for a given glucose dose.

isolated rat hepatocytes [2] = test: Hepatic production of glucose, 20 h incubation; format: cell-based, Wistar rat; conditions: rat hepatocytes
Description: as §1

Row | SMILES | activity at 50 µM (isolated rat hepatocytes [1]) [%] | activity at 100 µM (isolated rat hepatocytes [1]) [%] | insulin secretion, % of control at 10 µM (INS-1 cells) [%] | insulin secretion, % of control at 50 µM (INS-1 cells) [%] | inhibition of hepatic production of glucose (isolated rat hepatocytes [1]; with two doses) | inhibition of hepatic production of glucose (isolated rat hepatocytes [1]; dose of 100 μM) | HGP % of ctrl @ 50 μM (isolated rat hepatocytes [2]) | HGP % of ctrl @ 100 μM (isolated rat hepatocytes [2])
1 | CCOC(=O)COCc1nc2ccccn2c1C#Cc1ccccc1C(F)(F)F [Derivative 26, ethyl 2-((3-((2-(trifluoromethyl)-phenyl)ethynyl)imidazo[1,2-a]pyridin-2-yl)methoxy)acetate] | 78 | 67 | 138 | 246 |  |  |  | 
2 | CCOC(=O)COCc1nc2ccccn2c1C#Cc1ccc(F)cc1 [Derivative 3, ethyl 2-((3-((4-fluorophenyl)-ethynyl)imidazo[1,2-a]pyridin-2-yl)methoxy)acetate] | 73 | 60 | 130 | 472 |  |  |  | 
3 | COC(=O)c1ccccc1OCc1nc2ccccn2c1C#Cc1cccc(C#N)c1 [Derivative 79, methyl 2-((3-((3-cyanophenyl)-ethynyl)imidazo[1,2-a]pyridin-2-yl)methoxy)benzoate] | 86 | 74 | 128 | 152 |  |  |  | 
4 | COC(=O)c1cccc(OCc2nc3ccccn3c2C#Cc2ccccc2)c1 [Derivative 87, methyl 3-((3-(phenylethynyl)-imidazo[1,2-a]pyridin-2-yl)methoxy)benzoate] | 43 | 25 | 182 | 167 | strongest inhibitions |  |  | 
5 | O=C(COCc1nc2ccccn2c1C#Cc1ccc(F)cc1)NO [Derivative 59, 2-((3-((4-fluorophenyl)ethynyl)-imidazo[1,2-a]pyridin-2-yl)methoxy)-N-hydroxy acetamide] | 97 | 45 | 134 | 220 |  | strongest inhibitions |  | 
6 | CCOC(=O)COCc1nc2ccccn2c1C#Cc1cccc(OC)c1 [Derivative 12, ethyl 2-((3-((3-methoxyphenyl)-ethynyl)imidazo[1,2-a]pyridin-2-yl)methoxy)acetate] |  |  | 123 | 204 |  |  | 89 % of ctrl | 54 % of ctrl
7 | O=C(O)c1ccccc1OCc1nc2ccccn2c1C#Cc1ccc(F)cc1 [Derivative 88, 2-((3-((4-fluorophenyl)ethynyl)-imidazo[1,2-a]pyridin-2-yl)methoxy)benzoic acid] | 67 | 50 | 138 | 263 |  | strongest inhibitions |  | 
8 | CCOC(=O)COCc1nc2ccccn2c1C#Cc1ccccc1 [Derivative 1, ethyl 2-((3-(phenylethynyl)-imidazo[1,2-a]pyridin-2-yl)-methoxy)acetate] | 70 | 56 | 121 | 211 |  |  |  | 
9 | O=C([O-])c1ccccc1OCc1nc2ccccn2c1C#Cc1ccccc1.[Na+] [Derivative 92, sodium 2-((3-(phenylethynyl)imidazo-[1,2-a]pyridin-2-yl)methoxy)-benzoate] | 58 | 39 | 135 | 211 | strongest inhibitions |  |  | 
10 | COC(=O)c1ccccc1OCc1nc2ccccn2c1C#Cc1ccccc1 [Derivative 78, methyl 2-((3-(phenylethynyl)-imidazo[1,2-a]pyridin-2-yl)methoxy)benzoate] | 51 | 44 | 197 | 152 | strongest inhibitions |  |  | 
11 | COC(=O)c1ccccc1OCc1nc2ccccn2c1C#Cc1ccc(F)cc1 [Derivative 76, methyl 2-((3-((4-fluorophenyl)-ethynyl)imidazo[1,2-a]pyridin-2-yl)methoxy)benzoate] | 67 | 59 | 156 | 202 |  | strongest inhibitions |  | 
12 | CCOC(=O)CSCc1nc2ccc(Cl)cn2c1C#Cc1cccc(C(F)(F)F)c1 [Derivative 111, ethyl 2-[[6-chloro-3-[2-[3-(trifluoro-methyl)phenyl]ethynyl]imidazo [1,2-a]pyridin-2-yl]methylsulfanyl]acetate] | 73 | 27 | 136 | 173 |  | strongest inhibitions |  | 
13 | COC(=O)c1cccc(OCc2nc3ccccn3c2C#Cc2cccc(C(F)(F)F)c2)c1 [Derivative 81, methyl 3-((3-((3-(trifluoromethyl)-phenyl)ethynyl)imidazo[1,2-a]pyridin-2-yl)methoxy)benzoate] | 76 | 47 | 142 | 134 |  | strongest inhibitions |  | 
14 | CCOC(=O)CSCc1nc2ccc(Cl)cn2c1C#Cc1cccc(OC(F)(F)F)c1 [Derivative 112, ethyl 2-[[6-chloro-3-[2-[3-(trifluoromethoxy)phenyl]ethynyl]imidazo[1,2-a]pyridin-2-yl]methylsulfanyl]acetate] | 65 | 26 | 150 | 256 |  | strongest inhibitions |  | 
15 | O=C(O)CSCc1nc2ccc(Cl)cn2c1C#Cc1ccc(F)cc1 [Derivative 117, 2-[[6-chloro-3-[2-(4-fluorophenyl)ethynyl]imidazo [1,2-a]pyridin-2-yl]methylsulfanyl]acetic acid] | 55 | 43 | 130 | 137 | strongest inhibitions |  |  | 
16 | CCOC(=O)CSCc1nc2ccc(Cl)cn2c1C#Cc1ccc(F)cc1 [Derivative 110, ethyl 2-[[6-chloro-3-[2-[4-(fluoro)-phenyl]ethynyl]imidazo[1,2-a]pyridin-2-yl]methylsulfanyl]acetate] | 50 | 37 | 162 | 140 | strongest inhibitions |  |  | 
17 | O=C([O-])COCc1nc2ccccn2c1C#Cc1ccc(F)cc1.[Na+] [Derivative 46, sodium 2-((3-((4-fluorophenyl)-ethynyl)imidazo[1,2-a]pyridin-2-yl)methoxy)acetate] | 85 | 69 |  |  |  |  | 93 % of ctrl | 52 % of ctrl
18 | CCOC(=O)COCc1nc2ccccn2c1C#Cc1ccccc1F [Derivative 25, ethyl 2-((3-((2-fluorophenyl)-ethynyl)imidazo[1,2-a]pyridin-2-yl)methoxy)acetate] | 83 | 73 | 134 | 226 |  |  |  | 
19 | CCOC(=O)COCc1nc2ccccn2c1C#Cc1cccc(C#N)c1 [Derivative 14, ethyl 2-((3-((3-cyanophenyl)-ethynyl)imidazo[1,2-a]pyridin-2-yl)methoxy)acetate] | 86 | 73 | 100 | 242 |  |  |  | 
